{"source": "patent US10016397B2", "about": "“Selective AT2 receptor agonists for use in treatment of cachexia” (Charité-Universitaetsmedizin Berlin, priority 2013, dated 2018)", "key": {"[1]": {"biological_target": "AT1 receptor", "details": "read-out: Ki for AT1 receptor; cited from earlier work"}, "[2]": {"tested_on": "ascites hepatoma Yoshida AH-130 cells inoculated into male Wistar rats", "assay": "AH-130 Yoshida hepatoma cancer cachexia rat model", "details": "for survival / mortality (Kaplan Meier): low dose 0.2 mg/kg/day", "excerpt": "Use of an ACE inhibitor blocks all activation of both the AT1 and AT2 receptors, therefore inhibiting the beneficial effects of angiotensin II mediated activation of the AT2 receptor.\n(§1) The ascites hepatoma Yoshida AH-130 cells (10^8) were inoculated into approx. 200 g male Wistar rats. Alternatively animals received saline injection only (sham). The animals were housed in groups of three. The day after inoculation animals were randomized into various groups as described in the methods. […] The primary endpoints of the study included survival and quality of life. Secondary endpoints included body weight and body composition as well as organ weight, which were assessed at the end of the study (or after death).\nas §1, with “randomized.” for “randomized into various groups as described in the methods.”"}, "[3]": {"details": "0.2 mg/kg/d, vs placebo, listed as Compound-21"}, "[4]": {"details": "0.2 mg/kg/d, vs placebo, listed as compound-21"}, "[5]": {"details": "high dose 1.0 mg/kg/d, vs placebo, listed as Compound-21, 1 mg/kg/day"}, "[6]": {"details": "high dose 1.0 mg/kg/d, vs placebo, listed as compound-21, 1 mg/kg/day"}}, "data": [{"compound": "CCCCOC(=O)NS(=O)(=O)c1sc(CC(C)C)cc1-c1ccc(Cn2ccnc2)cc1", "note": "[Compound 21]", "values": [{"measurement": "Ki", "setting": "[1]", "value": "> 10", "unit": "µM"}, {"measurement": "change in body weight during the experiment", "setting": "[2]; [3]", "value": "significantly reduced loss of body weight"}, {"measurement": "food intake on day 11 after tumor inoculation", "setting": "[2]; [3]", "value": "significantly increased food intake"}, {"measurement": "heart weight at the end of the study", "setting": "[2]; [3]", "value": "significantly increased heart weight"}, {"measurement": "spontaneous locomotor activity on day 11 after tumor inoculation", "setting": "[2]; [3]", "value": "significantly increased activity"}, {"measurement": "weight of brown adipose tissue (BAT) at the end of the study", "setting": "[2]; [3]", "value": "significantly increased BAT weight"}, {"measurement": "weight of the fast fiber type EDL at the end of the study", "setting": "[2]; [3]", "value": "significantly increased EDL weight"}, {"measurement": "weight of the mixed fiber type gastrocnemius at the end of the study", "setting": "[2]; [3]", "value": "significantly increased gastrocnemius weight"}, {"measurement": "weight of the slow fiber type soleus at the end of the study", "setting": "[2]; [3]", "value": "significantly increased soleus weight"}, {"measurement": "weight of white adipose tissue (WAT) epididymal fat at the end of the study", "setting": "[2]; [3]", "value": "significantly increased WAT weight"}, {"measurement": "change in body weight during the experiment", "setting": "[2]; [4]", "value": "attenuated"}, {"measurement": "food intake on day 11 after tumor inoculation", "setting": "[2]; [4]", "value": "significantly improved"}, {"measurement": "heart weight at the end of the study", "setting": "[2]; [4]", "value": "improved"}, {"measurement": "spontaneous locomotor activity on day 11 after tumor inoculation", "setting": "[2]; [4]", "value": "significantly improved"}, {"measurement": "weight of brown adipose tissue (BAT) at the end of the study", "setting": "[2]; [4]", "value": "improved"}, {"measurement": "weight of the fast fiber type EDL at the end of the study", "setting": "[2]; [4]", "value": "higher compared to placebo"}, {"measurement": "weight of the mixed fiber type gastrocnemius at the end of the study", "setting": "[2]; [4]", "value": "higher compared to placebo"}, {"measurement": "weight of the slow fiber type soleus at the end of the study", "setting": "[2]; [4]", "value": "higher compared to placebo"}, {"measurement": "weight of white adipose tissue (WAT) epididymal fat at the end of the study", "setting": "[2]; [4]", "value": "improved"}, {"measurement": "weight of the fast fiber type EDL at the end of the study", "setting": "[2]; [5]", "value": "also improved EDL weight"}, {"measurement": "weight of the slow fiber type soleus at the end of the study", "setting": "[2]; [5]", "value": "also improved soleus weight"}, {"measurement": "weight of the fast fiber type EDL at the end of the study", "setting": "[2]; [6]", "value": "also improved"}, {"measurement": "weight of the slow fiber type soleus at the end of the study", "setting": "[2]; [6]", "value": "also improved"}, {"measurement": "toxicity at higher dose", "setting": "[2]; higher dose 1.0 mg/kg/d", "value": "toxic effects"}, {"measurement": "survival (Kaplan Meier)", "setting": "[2]; higher dose 1.0 mg/kg/d, vs placebo", "value": "not effective"}, {"measurement": "survival / mortality (Kaplan Meier)", "setting": "[2]; vs placebo, listed as Compound-21, 0.2 mg/kg/day", "value": "significantly reduced mortality"}, {"measurement": "survival / mortality (Kaplan Meier)", "setting": "[2]; vs placebo, listed as compound-21, 0.2 mg/kg/day", "value": "significantly improved survival"}]}, {"compound": "CCOC(=O)[C@H](CCc1ccccc1)N[C@@H](C)C(=O)N1C(=O)N(C)C[C@H]1C(=O)O", "note": "[imidapril, reference compound]", "values": [{"measurement": "quality of life (activity and food intake)", "setting": "[2]; imidapril", "value": "did not improve quality of life"}, {"measurement": "hazard ratio and survival", "setting": "[2]; imidapril, compared to untreated tumor-bearing animals", "value": "worse hazard ratio and survival"}, {"measurement": "body weight loss", "setting": "[2]; imidapril, vs untreated tumor-bearing animals", "value": "dose-dependent reduction of body weight loss"}]}]}
